In one data set the test system is HeLa cells. In words: Permeability of free dye and probes in live cells (fluorescence imaging). The data set is classed as cell-based, human. The note with it: live HeLa cells, probes 24 μM (AAN 5 μM), 1 h, 37 °C, one-photon fluorescence imaging with LysoTracker. As to the method: Supplementary Figure 5. Detection of caspase activities in live mammalian cells. (a) One-photon images of AAN (5 μM)/probes (24 μM)/DMSO (blank) in live HeLa cells after 1-h incubation together with LysoTracker. (Panels 1-7) bright field; (Panels 8-14) λex = 405 nm, λem = 420-480 nm (indicative of probes, blue); (Panels 15-21) λex = 405 nm, λem = 470-500 nm (indicative of AAN, green); (Panels 22-28) LysoTracker (λex = 543 nm, λem = 560-615 nm, red); (Panels 29-35) merged images of blue/red channels. Scale bar: 20 μm. (b) Bioimaging of NIH/3T3 cells transfected with active caspase-1 (Panels 2/3/5/6; 50 ng)/caspase-3 (Panels 8/9; 15 ng)/caspase-8 (Panels 11/12; 5 ng) with/without inhibitor treatment (Panels 3/6/9/12, 50 μM of Z-VAD-FMK incubated for 1 h before probes were added) as well as control cells (Panels 1/4/7/10, no caspase transfection) by using C1RB (24 μM)/C1FS (12 μM) for caspase-1, C3RA (24 μM) for caspase-3 and C8RA (24 μM) for caspase-8. Cells were co-stained with membrane tracker. (Green) signals from caspase-cleaved probes (λex = 760 nm, λem = 480-550 nm for all probes, except for C1FS with λem = 450-550 nm). (Red) membrane tracker (λex = 650 nm, λem = 655-740 nm). (Inset) bright field. Scale bar = 10 μm. […]
XTT assay. The cytotoxicity of our probes was determined by using the XTT colorimetric cell proliferation kit (Roche) following manufacturer’s guidelines. […]

The subject of data set [1] is caspase-3/-7-like activities in brain slices. In words: TPFM of caspase-3 activation in brain slices of ethanol-intoxicated mouse. The note with it: 200 μM, 3 h prior to C3RA. As to the method: Figure 4 Imaging endogenous caspase activities in deep tissues. (a) TPFM of caspase-3 activation in brain slices of ethanol-intoxicated 7-day-old C57BL/6 mouse using C3RA (120 μM, 3 h). Top: 3D images of the mouse brain slice taken along the Z-axis from 0 to 160 μm at 10x magnification. Bottom: images taken at a depth of 120 μm at 40x magnification. […]: control slices (saline-treated); panels 2/6/4/8: treated with caspase-3/7 inhibitor I (200 μM, 3 h). Scale bar = 50 μm. (b) RFU readings extracted from (a) (FTPFM, blue bars) versus those from in vitro enzymatic assays using lysates from the same brain slices (RFU, orange bars). The signal from saline controls was set as “0” and that from ethanol-treated samples was set as “1” in RFU quantification. Due to the base-level active caspase-3 in the saline controls, negative readings were shown with inhibitor-treated samples. (c) WB analysis of caspase-3/-1/-8 activation in lysates of the same mouse brain slices shown in (a). (d) Normalized RFU readings from in vitro enzymatic assays using brain lysates (300 μg) of saline/ethanol treated mice after incubation with C1RB/C3RA/C8RA (6 μM) for 1 h at 37 °C.
All two-photon images were taken on a Leica TCS SP5X Confocal Microscope System. […]

Data on 2 molecules can be found in paper PMC4876444, “Two-Photon Enzymatic Probes Visualizing Sub-cellular/Deep-brain Caspase Activities in Neurodegenerative Models” (Scientific Reports, 2016).

For `CC(=O)c1ccc2cc(N)ccc2c1` [AAN, 2-acetyl-6-aminonaphthalene, reference compound], the cell permeability entry in the data set on HeLa cells is given as “diffuse freely”.
Turning to `COC[C@@H]1CCCN1S(=O)(=O)c1ccc2c(c1)C(=O)C(=O)N2` [caspase-3/7 inhibitor I, reference compound], the “effect of inhibitor pre-treatment on C3RA fluorescence in brain slices” value in data set [1] is “completely abolished the fluorescence”.
